Assays:
Format in all cases: in vivo
[1] = tested on: winter wheat (Kazan-500 variety); assay: Winter wheat seed treatment with BHMPA: germination energy, germination rate, plant height, roots
Description: (§1) Control—Soaking Seeds in Water;
(§2) Experimental versions—soaking seeds in BHMPA solutions and solutions of BHMPA Ca, Mg, Na, Co, Mn, Cu, and Zn salts at 1·10^−6-1·10^−12% concentrations (doses). The studies were conducted in laboratory in Petri dishes; seed bed—two layers of filter paper. 50 seeds soaked in water (control) and in the solutions of the tested compounds (experimental) were placed into each dish. Wheat, corn, and rice seeds were exposed for one hour.
(§3) Analysis was conducted according to the government standards GOST 12038-84 “Crop seeds. Technical conditions for determining the germination energy and germination rate”, GOST 12044-93 “Crop seeds. Methods for determining disease contamination.”
(§4) Seed germination energy and rate were calculated in percent as an arithmetic mean of the four experimental results (germination energy on the 4th day, wheat germination on the 8th day, rice and corn germination—on the 7th day). Germination was determined based on the germinating power indicators (length of the roots and sprouts and their wet and dry mass per 100 shoots).
(§5) The study of the effect of pre-sowing seed treatment with BHMPA was conducted on winter wheat (Kazan-500 variety) and spring wheat (Ekada-66 variety).

[2] = tested on: spring wheat (Ekada-66 variety); assay: Spring wheat seed treatment: germination rate and plant height (laboratory, Petri dishes); conditions: for Germination rate % 4th day / Germination rate % 8th day / Plant height: spring wheat
Description: as §1, §2, §3, §4, §5

[3] = tested on: spring wheat seeds: contamination by mold, alternaria, bacteriosis; assay: Phytopathological properties (seed contamination) of treated spring wheat seeds
Description: as §2, §3, §5
The effect of the treatment with BHMPA on phytopathological properties of spring wheat seeds was examined and the results are presented in Table II. […] The biological activity in this case was 64.4%. In other samples, contamination of the seeds also remained lower than that of the control. Treatment of seeds with BHMPA solutions reduced their overall contamination.

Structure (SMILES): O=P(O)(CO)CO [BHMPA, bis-(hydroxymethyl)-phosphinic acid]
- Germination energy ([1]; 1·10^−7% solution): 82.5%
- Germination rate ([1]; 1·10^−7% solution): 84.0%
- Number of roots ([1]; 1·10^−7% solution): 3.3
- Plant height ([1]; 1·10^−7% solution): 11.3 cm
- Root length ([1]; 1·10^−7% solution): 11.7 cm
- Germination energy ([1]; 1·10^−8% solution): 86.0%
- Germination rate ([1]; 1·10^−8% solution): 86.0%
- Number of roots ([1]; 1·10^−8% solution): 3.1
- Plant height ([1]; 1·10^−8% solution): 12.5 cm
- Root length ([1]; 1·10^−8% solution): 12.1 cm
- Germination energy ([1]; 1·10^−9% solution): 87.4%
- Germination rate ([1]; 1·10^−9% solution): 96.0%
- Number of roots ([1]; 1·10^−9% solution): 3.4
- Plant height ([1]; 1·10^−9% solution): 13.6 cm
- Root length ([1]; 1·10^−9% solution): 12.3 cm
- Germination energy ([1]; 1·10^−10% solution): 85.7%
- Germination rate ([1]; 1·10^−10% solution): 90.0%
- Number of roots ([1]; 1·10^−10% solution): 3.2
- Plant height ([1]; 1·10^−10% solution): 11.2 cm
- Root length ([1]; 1·10^−10% solution): 11.5 cm
- Germination energy ([1]; 1·10^−11% solution): 83.9%
- Germination rate ([1]; 1·10^−11% solution): 92.0%
- Number of roots ([1]; 1·10^−11% solution): 3.3
- Plant height ([1]; 1·10^−11% solution): 12.4 cm
- Root length ([1]; 1·10^−11% solution): 11.3 cm
- Germination energy ([1]; 1·10^−12% solution): 90.0%
- Germination rate ([1]; 1·10^−12% solution): 95.0%
- Number of roots ([1]; 1·10^−12% solution): 3.3
- Plant height ([1]; 1·10^−12% solution): 14.1 cm
- Root length ([1]; 1·10^−12% solution): 11.9 cm
- Germination rate % 4th day ([2]; 1·10^−7% solution): 28.0%
- Germination rate % 8th day ([2]; 1·10^−7% solution): 70.0%
- Plant height ([2]; 1·10^−7% solution): 14.1 cm
- Germination rate % 4th day ([2]; 1·10^−9% solution): 33.0%
- Germination rate % 8th day ([2]; 1·10^−9% solution): 81.5%
- Plant height ([2]; 1·10^−9% solution): 14.3 cm
- Germination rate % 4th day ([2]; 1·10^−12% solution): 32.5%
- Germination rate % 8th day ([2]; 1·10^−12% solution): 81.3%
- Plant height ([2]; 1·10^−12% solution): 14.4 cm
- growth-regulating ability compared with Melaphen ([2]; wheat, Tables I-III, 1·10^−9%, 1·10^−11% and 1·10^−12%): lesser impact than that of the prototype Melaphen
- Biological efficacy ([3]; 1·10^−7% solution): 44.1%
- Contamination by type: alternaria ([3]; 1·10^−7% solution): 24%
- Contamination by type: bacteriosis ([3]; 1·10^−7% solution): 6%
- Contamination by type: mold ([3]; 1·10^−7% solution): 3%
- Overall contamination ([3]; 1·10^−7% solution): 33.0%
- Biological efficacy ([3]; 1·10^−8% solution): 42.4%
- Contamination by type: alternaria ([3]; 1·10^−8% solution): 26%
- Contamination by type: bacteriosis ([3]; 1·10^−8% solution): 6%
- Contamination by type: mold ([3]; 1·10^−8% solution): 2%
- Overall contamination ([3]; 1·10^−8% solution): 34.0%
- Biological efficacy ([3]; 1·10^−9% solution): 64.4%
- Contamination by type: alternaria ([3]; 1·10^−9% solution): 14%
- Contamination by type: bacteriosis ([3]; 1·10^−9% solution): 4%
- Contamination by type: mold ([3]; 1·10^−9% solution): 3%
- Overall contamination ([3]; 1·10^−9% solution): 21.5%
- overall seed contamination lower than that of the control by ([3]; 1·10^−9% solution, control 59%): 38%
- Overall contamination ([3]; 1·10^−9% solution, listed as bis-(hydroxymethyl)-phosphinic acid): 21.0%
- Biological efficacy ([3]; 1·10^−10% solution): 61.0%
- Contamination by type: alternaria ([3]; 1·10^−10% solution): 16%
- Contamination by type: bacteriosis ([3]; 1·10^−10% solution): 4%
- Contamination by type: mold ([3]; 1·10^−10% solution): 3%
- Overall contamination ([3]; 1·10^−10% solution): 23.0%
- Biological efficacy ([3]; 1·10^−11% solution): 22.0%
- Contamination by type: alternaria ([3]; 1·10^−11% solution): 42%
- Contamination by type: bacteriosis ([3]; 1·10^−11% solution): 2%
- Contamination by type: mold ([3]; 1·10^−11% solution): 2%
- Overall contamination ([3]; 1·10^−11% solution): 46.0%
- Biological efficacy ([3]; 1·10^−12% solution): 44.1%
- Contamination by type: alternaria ([3]; 1·10^−12% solution): 28%
- Contamination by type: bacteriosis ([3]; 1·10^−12% solution): 3%
- Contamination by type: mold ([3]; 1·10^−12% solution): 2%
- Overall contamination ([3]; 1·10^−12% solution): 33.0%
